Measurements taken from ChEMBL document CHEMBL1201862, “PubChem BioAssay data set” (2004).
Calls of active or inactive are those of the source.

Columns and labels:
[1] = tested on: BJ; assay: cytotoxicity toward BJ-TERT fibroblasts, dose response, cell-based, RAS-independent, luminescence (AID 1933); format: functional; details: Homo sapiens
[2] = tested on: BJ; assay: cells; format: functional, cell-based; details: Homo sapiens
[3] = tested on: BJ; assay: cytotoxicity toward BJ-TERT-LT-ST fibroblasts, dose response, cell-based, RAS-independent, luminescence (AID 1935); format: functional; details: Homo sapiens;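 further: BJ fibroblasts immortalized with TERT plus LT and ST oncogenes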
[4] = cytotoxicity toward DRD oncogenic fibroblasts, dose response, cell-based, non-viral oncogenic, luminescence (AID 1934); format: functional; details: Homo sapiens
[5] = tested on: BJ; assay: cytotoxicity toward Ras-transformed BJeLR fibroblasts, dose response, cell-based, alamar blue fluorescence, cherrypicked samples (AID 2631); format: functional; details: Homo sapiens;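 further: confirmatory dose-response assay in RAS-dependent BJ fibroblasts engineered with TERT, LT and ST, with cytotoxicity read by fluorescence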
[6] = tested on: Streptococcus sp. 'group A'; assay: growth inhibition of control SK(-) GAS strain, dose response, counter-screen for streptokinase expression inhibitor project, luminescence, kanamycin, BacTiterGlo, confirmation (AID 1900); format: functional, organism-based
[7] = molecular target: T1, Streptokinase A (Streptococcus pyogenes serotype M1, UniProt P10520); assay: S. pyogenes streptokinase expression inhibitors, potency, dose response, plasminogen activation absorbance, OD405 (AID 1914); format: functional, Streptococcus pyogenes M1 GAS;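 further: secreted streptokinase activity via plasminogen activation per viability signal from cell pellet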
T1 sequence (P10520 whole entry): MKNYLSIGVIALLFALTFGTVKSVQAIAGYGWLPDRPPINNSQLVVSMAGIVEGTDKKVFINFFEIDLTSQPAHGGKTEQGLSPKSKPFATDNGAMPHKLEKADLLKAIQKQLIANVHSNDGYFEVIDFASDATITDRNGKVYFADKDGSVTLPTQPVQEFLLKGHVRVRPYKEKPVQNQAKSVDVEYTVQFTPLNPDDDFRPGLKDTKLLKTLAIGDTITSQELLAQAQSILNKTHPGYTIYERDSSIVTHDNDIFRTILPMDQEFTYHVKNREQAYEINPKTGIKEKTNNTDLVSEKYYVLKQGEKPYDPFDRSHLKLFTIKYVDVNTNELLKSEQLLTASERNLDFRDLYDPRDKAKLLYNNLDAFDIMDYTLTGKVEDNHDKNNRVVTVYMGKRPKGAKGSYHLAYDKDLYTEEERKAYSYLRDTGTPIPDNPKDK

[8] = tested on: Streptococcus; assay: Group A Streptococcus viability loss, dose response, counter-screen for streptokinase expression inhibitor project, luminescence, BacTiterGlo (AID 1915); format: functional, organism-based;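 further: potency for reduction of bacterial viability or growth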
[9] = molecular target: T2, Apoptotic protease-activating factor 1 (Homo sapiens, UniProt O14727); format: functional
T2 sequence (O14727 whole entry): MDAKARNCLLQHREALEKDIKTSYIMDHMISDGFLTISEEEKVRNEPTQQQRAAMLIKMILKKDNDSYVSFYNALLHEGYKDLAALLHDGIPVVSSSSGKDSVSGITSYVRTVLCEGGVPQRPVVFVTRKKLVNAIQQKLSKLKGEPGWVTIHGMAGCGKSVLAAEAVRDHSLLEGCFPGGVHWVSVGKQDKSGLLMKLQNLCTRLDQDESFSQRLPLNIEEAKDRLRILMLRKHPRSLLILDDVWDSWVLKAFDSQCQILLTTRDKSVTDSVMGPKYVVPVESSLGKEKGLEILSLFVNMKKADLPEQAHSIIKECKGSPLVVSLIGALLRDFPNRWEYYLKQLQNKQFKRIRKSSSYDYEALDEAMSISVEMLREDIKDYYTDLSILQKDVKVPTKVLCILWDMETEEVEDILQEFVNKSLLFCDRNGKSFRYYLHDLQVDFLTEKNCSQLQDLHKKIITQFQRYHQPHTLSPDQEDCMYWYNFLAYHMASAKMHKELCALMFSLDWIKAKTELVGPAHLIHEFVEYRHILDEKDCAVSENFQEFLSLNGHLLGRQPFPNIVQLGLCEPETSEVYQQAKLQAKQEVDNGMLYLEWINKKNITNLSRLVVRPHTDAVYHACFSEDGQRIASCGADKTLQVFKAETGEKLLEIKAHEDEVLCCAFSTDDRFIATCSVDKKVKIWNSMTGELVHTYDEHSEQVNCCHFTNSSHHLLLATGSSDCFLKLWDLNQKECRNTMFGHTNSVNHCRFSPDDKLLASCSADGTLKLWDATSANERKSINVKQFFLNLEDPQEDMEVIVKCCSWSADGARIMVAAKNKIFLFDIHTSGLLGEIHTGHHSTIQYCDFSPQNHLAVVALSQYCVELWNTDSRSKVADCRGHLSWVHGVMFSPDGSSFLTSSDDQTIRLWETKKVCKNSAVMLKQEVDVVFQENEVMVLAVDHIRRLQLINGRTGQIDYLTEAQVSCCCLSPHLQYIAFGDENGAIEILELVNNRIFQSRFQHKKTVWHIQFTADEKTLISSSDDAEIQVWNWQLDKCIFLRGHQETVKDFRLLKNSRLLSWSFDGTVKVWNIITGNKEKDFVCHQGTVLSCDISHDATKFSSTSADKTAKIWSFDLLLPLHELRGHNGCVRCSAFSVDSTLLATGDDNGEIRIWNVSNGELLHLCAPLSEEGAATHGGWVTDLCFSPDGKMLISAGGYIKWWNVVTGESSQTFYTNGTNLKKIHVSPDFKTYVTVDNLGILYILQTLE

[10] = molecular target: Nonstructural protein 1 (Influenza A virus, UniProt Q194T2); format: functional, Influenza A virus (A/California/07/2009(H1N1))
[11] = molecular target: T3, Caspase-3 (Homo sapiens, UniProt P42574); format: functional;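 further: Dose-response selectivity test against caspase-3 for candidate inhibitors of sentrin-specific proteases (SENPs)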
T3 sequence (P42574 whole entry): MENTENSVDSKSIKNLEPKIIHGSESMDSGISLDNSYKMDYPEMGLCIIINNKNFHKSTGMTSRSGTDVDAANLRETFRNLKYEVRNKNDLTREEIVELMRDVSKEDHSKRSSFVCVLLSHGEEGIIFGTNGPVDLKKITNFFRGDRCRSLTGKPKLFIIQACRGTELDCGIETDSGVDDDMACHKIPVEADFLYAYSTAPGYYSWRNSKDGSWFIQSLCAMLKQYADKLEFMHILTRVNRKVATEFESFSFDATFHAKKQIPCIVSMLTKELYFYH

[12] = molecular target: T4, Sentrin-specific protease 7 (Homo sapiens, UniProt Q9BQF6); format: functional;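 further: Luminescence-based dose-response confirmation of ultra-high-throughput screening hits, measuring inhibition of SENP7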
T4 sequence (Q9BQF6 whole entry): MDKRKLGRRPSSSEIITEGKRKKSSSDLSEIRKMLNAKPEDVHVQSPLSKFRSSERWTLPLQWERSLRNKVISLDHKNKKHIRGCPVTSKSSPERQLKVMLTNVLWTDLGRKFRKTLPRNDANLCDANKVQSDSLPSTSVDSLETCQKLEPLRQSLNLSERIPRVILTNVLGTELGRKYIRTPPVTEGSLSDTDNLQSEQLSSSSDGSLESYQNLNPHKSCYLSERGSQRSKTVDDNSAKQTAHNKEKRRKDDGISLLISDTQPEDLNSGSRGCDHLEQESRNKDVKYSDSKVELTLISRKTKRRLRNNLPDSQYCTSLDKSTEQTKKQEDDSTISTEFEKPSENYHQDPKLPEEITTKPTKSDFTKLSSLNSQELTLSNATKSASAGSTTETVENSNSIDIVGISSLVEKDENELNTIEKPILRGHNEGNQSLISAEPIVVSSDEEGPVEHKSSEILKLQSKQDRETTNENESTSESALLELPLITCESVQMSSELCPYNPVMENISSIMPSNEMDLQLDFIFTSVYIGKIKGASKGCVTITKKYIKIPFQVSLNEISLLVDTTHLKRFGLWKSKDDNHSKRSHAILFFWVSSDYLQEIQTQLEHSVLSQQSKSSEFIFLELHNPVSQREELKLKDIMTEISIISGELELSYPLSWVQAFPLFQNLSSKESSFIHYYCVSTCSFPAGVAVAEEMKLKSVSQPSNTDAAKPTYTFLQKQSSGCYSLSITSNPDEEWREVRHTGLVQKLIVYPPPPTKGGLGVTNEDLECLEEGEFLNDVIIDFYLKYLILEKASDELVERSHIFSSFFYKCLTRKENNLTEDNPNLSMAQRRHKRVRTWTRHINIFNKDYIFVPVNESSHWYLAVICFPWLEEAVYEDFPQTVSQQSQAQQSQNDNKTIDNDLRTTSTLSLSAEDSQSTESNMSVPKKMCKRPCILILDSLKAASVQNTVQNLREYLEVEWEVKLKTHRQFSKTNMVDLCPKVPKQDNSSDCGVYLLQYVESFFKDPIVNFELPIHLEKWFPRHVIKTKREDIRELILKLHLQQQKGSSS

[13] = molecular target: T5, Sentrin-specific protease 6 (Homo sapiens, UniProt Q9GZR1); format: functional;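 further: Luminescence-based dose-response confirmatory assay of SENP6 inhibition, following up an ultra-high-throughput screen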
T5 sequence (Q9GZR1 whole entry): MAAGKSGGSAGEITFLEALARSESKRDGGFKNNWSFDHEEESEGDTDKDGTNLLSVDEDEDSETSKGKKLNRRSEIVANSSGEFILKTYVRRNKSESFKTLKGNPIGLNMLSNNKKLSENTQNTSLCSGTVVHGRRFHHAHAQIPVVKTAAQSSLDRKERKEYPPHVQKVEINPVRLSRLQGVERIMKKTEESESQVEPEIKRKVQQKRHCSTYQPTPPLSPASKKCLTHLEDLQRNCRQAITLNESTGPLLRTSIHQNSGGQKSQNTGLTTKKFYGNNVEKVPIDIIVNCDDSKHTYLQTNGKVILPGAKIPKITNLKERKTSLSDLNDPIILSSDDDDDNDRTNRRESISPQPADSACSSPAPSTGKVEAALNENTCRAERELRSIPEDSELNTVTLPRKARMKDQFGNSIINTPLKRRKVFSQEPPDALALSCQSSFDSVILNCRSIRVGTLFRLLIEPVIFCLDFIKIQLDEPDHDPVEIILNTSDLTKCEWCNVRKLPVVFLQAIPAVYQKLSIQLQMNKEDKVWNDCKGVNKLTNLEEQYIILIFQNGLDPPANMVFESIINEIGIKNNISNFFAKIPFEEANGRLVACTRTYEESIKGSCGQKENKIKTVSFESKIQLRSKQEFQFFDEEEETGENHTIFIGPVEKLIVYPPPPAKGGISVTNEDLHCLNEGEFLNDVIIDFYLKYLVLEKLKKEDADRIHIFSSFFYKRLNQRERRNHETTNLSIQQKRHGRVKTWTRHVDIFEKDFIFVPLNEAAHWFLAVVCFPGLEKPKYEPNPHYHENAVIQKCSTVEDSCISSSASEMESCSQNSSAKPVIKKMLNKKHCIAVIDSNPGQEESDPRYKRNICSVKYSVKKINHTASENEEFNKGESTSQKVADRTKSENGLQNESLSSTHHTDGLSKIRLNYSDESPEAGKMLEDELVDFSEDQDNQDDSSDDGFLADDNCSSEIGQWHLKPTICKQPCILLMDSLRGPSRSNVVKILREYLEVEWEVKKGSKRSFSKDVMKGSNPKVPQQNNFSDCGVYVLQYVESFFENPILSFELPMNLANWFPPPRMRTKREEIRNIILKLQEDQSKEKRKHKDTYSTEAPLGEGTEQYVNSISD

[14] = molecular target: T6, Sentrin-specific protease 8 (Homo sapiens, UniProt Q96LD8); format: functional;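 further: luminescence read-out of SENP8 inhibition, dose-response confirmation following an ultra-high-throughput screen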
T6 sequence (Q96LD8 whole entry): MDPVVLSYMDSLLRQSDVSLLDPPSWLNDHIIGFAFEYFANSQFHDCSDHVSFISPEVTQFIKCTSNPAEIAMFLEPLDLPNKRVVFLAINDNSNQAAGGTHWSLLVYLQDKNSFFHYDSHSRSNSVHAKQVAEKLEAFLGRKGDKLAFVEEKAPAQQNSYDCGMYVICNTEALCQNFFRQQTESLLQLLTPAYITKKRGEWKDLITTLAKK

[15] = molecular target: Large T antigen (Simian virus 40, UniProt P03070); format: functional, Betapolyomavirus macacae;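 further: Confirmatory-stage PubChem screen for compounds that inhibit SV40 T antigen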
[16] = Luminescence Cell-Based Dose Confirmation HTS to Identify Activators of 5'UTR Stem-Loop Driven Alpha-Synuclein mRNA Translation in H4 Neuroglioblastoma Cells. [Related pubchem assays: 1829 (Project Summary), 1814 (Primary HTS)]; format: functional
[17] = Luminescence Cell-Based Dose Response HTS to Identify Activators of Luciferase Translation or Activity in H4 […] Cells. [Related pubchem assays: 1829 (Project Summary), 1814 (Primary HTS)]; format: functional
[18] = tested on: H4; assay: Luminescence Cell-Based Dose Response HTS to Identify Activators of 5'UTR Stem-Loop Driven Prion Protein mRNA Translation in H4 Neuroglioblastoma Cells. [Related pubchem assays: 1829 (Project Summary), 1814 (Primary HTS)]; format: functional; details: Homo sapiens
[19] = molecular target: Cytochrome P450 2C9 (Homo sapiens, UniProt P11712)
Chain of Cytochrome P450 2C9 (P11712 whole entry): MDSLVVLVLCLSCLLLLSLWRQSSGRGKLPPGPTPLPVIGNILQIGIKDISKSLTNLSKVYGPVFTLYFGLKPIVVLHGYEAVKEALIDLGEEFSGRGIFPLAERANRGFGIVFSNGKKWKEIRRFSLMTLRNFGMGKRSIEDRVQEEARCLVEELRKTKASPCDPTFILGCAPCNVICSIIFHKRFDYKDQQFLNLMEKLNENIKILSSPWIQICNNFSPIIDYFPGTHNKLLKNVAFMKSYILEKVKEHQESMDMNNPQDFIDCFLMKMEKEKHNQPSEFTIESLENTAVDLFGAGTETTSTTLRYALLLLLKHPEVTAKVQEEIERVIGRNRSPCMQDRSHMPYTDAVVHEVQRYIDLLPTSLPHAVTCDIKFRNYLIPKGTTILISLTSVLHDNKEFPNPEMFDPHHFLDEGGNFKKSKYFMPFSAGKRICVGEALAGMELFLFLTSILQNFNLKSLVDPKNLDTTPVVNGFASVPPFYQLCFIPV

Chain of Large T antigen (P03070 whole entry): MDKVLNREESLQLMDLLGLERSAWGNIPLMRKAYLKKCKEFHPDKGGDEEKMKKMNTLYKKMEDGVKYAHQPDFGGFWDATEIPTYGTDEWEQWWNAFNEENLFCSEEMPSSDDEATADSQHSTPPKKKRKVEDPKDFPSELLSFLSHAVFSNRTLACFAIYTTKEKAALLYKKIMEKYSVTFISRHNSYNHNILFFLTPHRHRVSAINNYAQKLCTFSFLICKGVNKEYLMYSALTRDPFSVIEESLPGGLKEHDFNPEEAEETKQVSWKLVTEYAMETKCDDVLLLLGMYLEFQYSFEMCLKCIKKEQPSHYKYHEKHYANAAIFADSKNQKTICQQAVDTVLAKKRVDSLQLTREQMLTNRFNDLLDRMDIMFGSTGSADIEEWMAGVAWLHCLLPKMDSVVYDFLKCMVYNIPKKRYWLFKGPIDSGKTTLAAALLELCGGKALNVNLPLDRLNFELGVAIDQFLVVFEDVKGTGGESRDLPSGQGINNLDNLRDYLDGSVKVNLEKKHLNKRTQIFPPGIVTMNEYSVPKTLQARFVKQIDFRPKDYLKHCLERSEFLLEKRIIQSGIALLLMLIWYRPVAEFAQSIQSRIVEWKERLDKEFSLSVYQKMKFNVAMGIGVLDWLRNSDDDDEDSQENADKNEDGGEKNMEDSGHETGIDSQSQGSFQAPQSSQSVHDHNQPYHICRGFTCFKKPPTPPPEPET
Chain of Nonstructural protein 1 (Q194T2 whole entry): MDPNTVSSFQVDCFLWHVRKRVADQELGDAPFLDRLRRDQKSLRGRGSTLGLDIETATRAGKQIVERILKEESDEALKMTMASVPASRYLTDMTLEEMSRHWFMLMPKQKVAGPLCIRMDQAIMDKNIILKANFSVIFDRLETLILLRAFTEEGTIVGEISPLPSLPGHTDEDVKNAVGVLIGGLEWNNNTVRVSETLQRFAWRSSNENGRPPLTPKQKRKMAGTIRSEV

For `COCCCNC(=O)Cc1c(C)c2c(cc(C)c3c(C(C)(C)C)coc32)oc1=O`, the EC50 [1] was 8.02 µM (inconclusive), the EC50 [2] was 19.3 µM (inconclusive) and the EC50 [3] was 4.18 µM (active). For the same compound, the EC50 [4] was 10.6 µM (inconclusive) and the EC50 [5] was 0.473 µM (active).
In the case of `C[C@@]12CCC=C[C@H]1[C@H](c1ccc3ccccc3c1Br)N(Cc1ccccc1)C2=O`, the EC50 [6] is reported as 4.22 µM (active), the EC50 [7] is reported as 5.76 µM (active) and the EC50 [8] is reported as 5.78 µM (active). For the same compound, the IC50 [9] was 59.3 µM (active).
For `CCOC(=O)C1CCCN(C2=C(NS(=O)(=O)c3ccc(Br)cc3)C(=O)c3ccccc3C2=O)C1` (configuration not stated), the IC50 [10] was 15.9 µM (active) and the IC50 [9] was 19.5 µM (active).
For `Fc1ccc(NC(=S)N2N=CCC2c2ccccc2)cc1` (configuration not stated), the IC50 [11] was 15.9 µM (active), the IC50 [12] was 11.8 µM (active) and the IC50 [13] was 39.3 µM (active). The IC50 [14] was 38.3 µM (active).
With `Cc1cc(C)c2c(CCl)cc(=O)oc2c1` the EC50 [1] was 0.784 µM (active), the EC50 [2] was 0.676 µM (active) and the IC50 [15] was 9.73 µM (active). The EC50 [3] was 0.584 µM (inconclusive), the EC50 [4] was 0.762 µM (active) and the EC50 [5] was 0.296 µM (active).
With `Clc1ccc(-c2cc3ccccc3[nH]2)cc1` the EC50 [16] was 3.77 µM (active), the EC50 [17] was 106 µM (active) and the EC50 [18] was 9.01 µM (active). The IC50 [11] was 16 µM (active), the IC50 [12] was 8.48 µM (active) and the IC50 [13] was 18 µM (active). The IC50 [14] was 19.9 µM (active) and the AC50 [19] was 11.2 µM (inconclusive).
For `Cc1cc(-n2c(C)cc(C(=O)COc3ccc(F)c(F)c3)c2C)no1`, the IC50 [11] was 21 µM (active), the IC50 [12] was 8.26 µM (active) and the IC50 [13] was 22.7 µM (active). For the same compound, the IC50 [14] was 20.4 µM (active).
In the case of `C/C(=N/OC(=O)c1ccccc1Br)c1ccc(C)cc1`, the IC50 [11] is reported as 31.3 µM (active), the IC50 [12] is reported as 7.72 µM (active) and the IC50 [13] is reported as 28.1 µM (active). For the same compound, the IC50 [14] was 46.9 µM (active).
